Source: US20060020027A1, “Use of curcumanoids as histone acetyltransferases (HATs) inhibitors” (priority 2004, published 2006)

Columns and labels:
[1] = molecular target: T1, lysine methyltransferase G9a (Homo sapiens, UniProt Q96KQ7); assay: Histone methyltransferase assay with G9a; assay type: biochemical; settings: 50 and 100 μM curcumin
T1 construct: bacterially expressed HMTase domain of G9a fused to GST (31); GST; made in house
T1 sequence (Q96KQ7 830-1209 limits assumed): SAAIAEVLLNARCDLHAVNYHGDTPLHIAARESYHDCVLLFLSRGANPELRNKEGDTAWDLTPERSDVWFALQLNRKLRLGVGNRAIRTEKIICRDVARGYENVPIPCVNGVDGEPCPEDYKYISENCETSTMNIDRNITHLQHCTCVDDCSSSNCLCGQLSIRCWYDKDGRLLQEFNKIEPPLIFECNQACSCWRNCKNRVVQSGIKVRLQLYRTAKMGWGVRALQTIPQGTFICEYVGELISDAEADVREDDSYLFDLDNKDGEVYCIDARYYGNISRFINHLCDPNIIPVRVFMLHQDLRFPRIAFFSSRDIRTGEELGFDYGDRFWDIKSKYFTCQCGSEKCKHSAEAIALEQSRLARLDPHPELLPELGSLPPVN
Protocol: (§1) Histone methyltransferase and deacetylase Assays: Histone methyltransferase assays were performed in a 30 μl reaction. […] After the initial incubation, 1 μl of 8.3 Ci/mmol ^3H—S— Adenosyl Methionine was added to the reaction mixtures and the incubation continued for 1 hour (in the case of nuclear extract) or for 15 minutes (in the case of G9a). The reaction products were TCA precipitated, resolved on 15% SDS-PAGE and subjected to fluorography followed by autoradiography.
(§2) The reaction products were TCA precipitated, resolved on 15% SDS-PAGE and subjected to fluorography followed by autoradiography.

[2] = test system: HIV-1 (H9/HTLV-IIIb NIH 1983 cells cocultured with SupT1 cells); assay: Syncytium inhibition assay; assay type: cell-based; settings: 12 h
Protocol: Syncytium inhibition assay: The cell lines SupT1 and H9/HTLV-IIIb NIH 1983 were obtained from The AIDS Research and Reference Reagent Program. H9/HTLV-IIIb NIH 1983 cells carrying a stably integrated provirus were cocultured with excess numbers of SupT1 cells at a ration of 1:200 or 1:400. A total of […] were seeded per well in a 24-well plate and cultured in RPMI medium supplemented with 10% fetal calf serum and antibiotics. […] All the wells received the same amount of DMSO including the control wells. Formation of syncytia was visible under light microscope within 12 hrs. The total number of syncytia in 10 representative wells was counted at different time points (12, 24 and 48 h) and data for 12 h time point are presented. Identical results were obtained at other time points. All the assays were performed in triplicate wells and the experiment was performed two times.
(A), H9/HTLV-IIIb NIH 1983 carrying stable integrated virus were cocultured with excess numbers of SupT1 cells at 1:200 or 1:400 ratio. A total of 0.1×10^6 cells were seeded per well. […] Formation of syncytia is visible under light microscope within 12 hrs. The total number of syncytia in 10 representative wells was counted and presented. The data are representative of 2 independent experiments.

PCAF = PCAF (Homo sapiens, UniProt Q92831); assay: Histone acetyltransferase (HAT) assay with PCAF; assay type: biochemical; settings: 100 μM curcumin
PCAF, sequence (Q92831 whole entry, species assumed): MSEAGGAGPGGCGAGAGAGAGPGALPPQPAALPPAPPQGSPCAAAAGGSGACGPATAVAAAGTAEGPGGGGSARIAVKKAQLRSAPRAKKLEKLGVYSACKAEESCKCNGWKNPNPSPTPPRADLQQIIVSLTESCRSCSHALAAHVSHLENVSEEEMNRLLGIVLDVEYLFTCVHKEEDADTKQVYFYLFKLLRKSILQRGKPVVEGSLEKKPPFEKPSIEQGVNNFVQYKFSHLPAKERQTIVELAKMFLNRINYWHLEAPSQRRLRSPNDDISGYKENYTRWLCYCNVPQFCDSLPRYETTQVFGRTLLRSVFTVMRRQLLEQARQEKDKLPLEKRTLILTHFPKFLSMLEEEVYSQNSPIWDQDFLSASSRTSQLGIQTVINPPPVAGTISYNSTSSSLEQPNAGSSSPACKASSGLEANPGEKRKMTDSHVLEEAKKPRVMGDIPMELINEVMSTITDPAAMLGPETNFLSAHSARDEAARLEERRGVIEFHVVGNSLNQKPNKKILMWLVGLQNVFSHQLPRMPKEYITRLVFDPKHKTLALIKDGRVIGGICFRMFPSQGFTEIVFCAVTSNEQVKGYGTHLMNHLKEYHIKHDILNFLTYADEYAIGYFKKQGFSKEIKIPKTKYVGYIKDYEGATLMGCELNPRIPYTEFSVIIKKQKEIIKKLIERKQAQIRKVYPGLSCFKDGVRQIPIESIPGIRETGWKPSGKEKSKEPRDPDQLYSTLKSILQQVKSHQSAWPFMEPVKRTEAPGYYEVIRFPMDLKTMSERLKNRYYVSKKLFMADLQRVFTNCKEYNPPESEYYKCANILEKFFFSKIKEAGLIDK
Protocol: (§3) Histone acetyltransferase Assay: HAT assays were performed as described previously (30). […] The reaction mixture was then blotted onto P-81 (Whatman) filter paper and radioactive counts were recorded on a Wallac 1409 liquid scintillation counter. The radiolabeled acetylated histones were visualized by resolving on 15% SDS-polyacrylamide gel and subjected to fluorography followed by autoradiography.

[3] = test system: acetylation of histones in HeLa cells; assay: In vivo histone acetylation in cells (AUT gel and western blotting); assay type: cell-based
Protocol: Acid/Urea/Triton (A UT) polyacrylamide gel electrophoresis and Western Blotting for in vivo acetylated histones: HeLa cells (3×10^6 cells per 90 mm dish) were seeded overnight and histones were extracted from 24 hours of compound treated cells as reported earlier (29,32). Briefly, cells were harvested, washed in ice-cold buffer A (150 mM KCl, 20 mM HEPES, pH 7.9, 0.1 mM EDTA and 2.5 mM MgCl2) and lysed in buffer A containing 250 mM sucrose and 1% (v/v) Triton X 100. Nuclei were recovered by centrifugation, washed, and proteins were extracted for 1 h using 0.25 M HCl. The proteins were precipitated with 25% (w/v) trichloroacetic acid (TCA) and sequentially washed with ice-cold acidified acetone (20 μl of 12N HCl in 100 ml acetone), and acetone, air-dried and dissolved in the sample buffer (5.8 M urea, 0.9 M glacial acetic acid, 16% glycerol, and 4.8% 2-mercaptoethanol). The histones (equal amounts in all lanes) were resolved on AUT gel as described elsewhere (33,34).
For western blotting, the quantitated protein samples were run on a 12% SDS-polyacrylamide gel and following electrophoresis, proteins on the gel were electrotransferred onto an immobilon membrane (PVDF; Millipore Corp., Bedford, Mass.). The membranes were then blocked in 5% skim milk powder solution in 1×PBS containing 0.05% Tween 20 and then immunoblotted with anti-acetyl H3 (Calbiochem), anti-acetyl H4 (a kind gift from Dr. Alaine Verrault) and anti-H3 respectively. Detection was performed using goat anti-rabbit secondary antibody (Bangalore Genei) and bands were visualized by ECL detection system (Pierce).
(B) HeLa cells were treated as indicated, for 24 hours, histones were extracted and separated on an 18% acid/urea/triton (AUT) PAGE. The protein bands were visualized by Coomassie brilliant blue staining. […] Asterisk (*) indicates hyperacetylation of histones in response to HDAC inhibition by TSA and sodium butyrate. […] (C). The acid-extracted histones were resolved over 12% SDS-PAGE and were analyzed by western blot using antibodies against acetylated histone H3 and H4. Loading and transfer of equal amounts of protein were confirmed by immunodetection of histone H3. (D) 293 T cells were transiently transfected with CMV-p53 and CMV-p300 either alone or in combination as indicated. […] The p53 protein was immunoprecipitated from the cell lysates using p53 monoclonal antibody and acetylation status was analyzed by western blotting. Lanes 1 and 4, transfection with p53 alone; lanes 2 and 5, co-transfection with p53 and p300; lanes 3 and 6, transfection with p300 alone. (IP:Immunoprecipitation and IB: Immunoblotting).

HeLa cells = assay: Apoptosis assay (Hoechst staining, nuclear fragmentation); assay type: cell-based; settings: 24 hours exposure to 75-100 μM
Protocol: Apoptosis assay: Curcumin-induced apoptosis was monitored by the extent of nuclear fragmentation. Nuclear fragmentation was visualized by Hoechst staining of apoptotic nuclei. The apoptotic cells were collected by centrifugation, washed with PBS and fixed in 4% paraformaldehyde for 20 minutes at room tempertature. Subsequently the cells were washed and resuspended in 20 μl PBS before depositing it on poly lysine-coated coverslips and were left to adhere on cover slips for 30 min at room temperature after which the cover slips were washed twice with PBS. The adhered cells were then incubated with 0.1% Triton X-100 for 5 min at room temperature and rinsed with PBS for three times. The coverslips were treated with Hoechst 33258 for 30 minutes at 37° C., rinsed with PBS and mounted them on slides with glycerol-PBS and processed as described previously (29).
Arrows indicate apoptotic nuclear fragmentation

[4] = test system: histone methyltransferase enzymes of HeLa nuclear extract; assay: Histone methyltransferase assay with HeLa nuclear extract; assay type: biochemical; settings: 50 and 100 μM curcumin
Protocol: as §1, §2

[5] = test system: p300 HAT activity dependent chromatin transcription; assay: In vitro transcription from chromatin template; assay type: biochemical
Protocol: In Vitro Chromatin Assembly: Chromatin template for in vitro transcription experiments was assembled and characterized as described earlier (9).
(§4) In vitro Transcription Assay: Transcription assays were carried out as described elsewhere (9) with the necessary modifications. The reconstituted chromatin template (containing 30 ng DNA) or an equimolar amount of histone—free DNA was incubated with 50 ng of activator (Gal4-VP16) in a buffer containing 4 mM HEPES (pH 7.8), 20 mM KCl, 2 mM DTT, 0.2 mM PMSF, 10 mM sodium butyrate, 0.1 mg/ml bovine serum albumin, 2% glycerol. […] HeLa nuclear extract (5 μl, which contains 8 mg/ml protein) was added then to initiate the preinitiation complex formation. Transcription reaction was started by the addition of NTP-mix and α-[^32P] UTP after the preinitiation complex formation and incubated further for 40 min at 30° C. […] Transcripts were analysed by 5% Urea-PAGE and quantification of transcription was done by phosphoimager (Fuji) analysis. […]
(§5) (A), Schematic representation of the in vitro transcription protocol. […] The in vitro transcription reaction mixtures were analyzed on 5% urea-acrylamide gel and further processed by autoradiography.

[6] = molecular target: T2, p300 (substrate HIV-Tat protein) (Homo sapiens, UniProt Q09472); assay: Acetylation of Tat protein by p300 (HAT assay); assay type: biochemical; settings: […] and 50 μM curcumin
T2 construct: made in house
T2 sequence (Q09472 whole entry, species assumed): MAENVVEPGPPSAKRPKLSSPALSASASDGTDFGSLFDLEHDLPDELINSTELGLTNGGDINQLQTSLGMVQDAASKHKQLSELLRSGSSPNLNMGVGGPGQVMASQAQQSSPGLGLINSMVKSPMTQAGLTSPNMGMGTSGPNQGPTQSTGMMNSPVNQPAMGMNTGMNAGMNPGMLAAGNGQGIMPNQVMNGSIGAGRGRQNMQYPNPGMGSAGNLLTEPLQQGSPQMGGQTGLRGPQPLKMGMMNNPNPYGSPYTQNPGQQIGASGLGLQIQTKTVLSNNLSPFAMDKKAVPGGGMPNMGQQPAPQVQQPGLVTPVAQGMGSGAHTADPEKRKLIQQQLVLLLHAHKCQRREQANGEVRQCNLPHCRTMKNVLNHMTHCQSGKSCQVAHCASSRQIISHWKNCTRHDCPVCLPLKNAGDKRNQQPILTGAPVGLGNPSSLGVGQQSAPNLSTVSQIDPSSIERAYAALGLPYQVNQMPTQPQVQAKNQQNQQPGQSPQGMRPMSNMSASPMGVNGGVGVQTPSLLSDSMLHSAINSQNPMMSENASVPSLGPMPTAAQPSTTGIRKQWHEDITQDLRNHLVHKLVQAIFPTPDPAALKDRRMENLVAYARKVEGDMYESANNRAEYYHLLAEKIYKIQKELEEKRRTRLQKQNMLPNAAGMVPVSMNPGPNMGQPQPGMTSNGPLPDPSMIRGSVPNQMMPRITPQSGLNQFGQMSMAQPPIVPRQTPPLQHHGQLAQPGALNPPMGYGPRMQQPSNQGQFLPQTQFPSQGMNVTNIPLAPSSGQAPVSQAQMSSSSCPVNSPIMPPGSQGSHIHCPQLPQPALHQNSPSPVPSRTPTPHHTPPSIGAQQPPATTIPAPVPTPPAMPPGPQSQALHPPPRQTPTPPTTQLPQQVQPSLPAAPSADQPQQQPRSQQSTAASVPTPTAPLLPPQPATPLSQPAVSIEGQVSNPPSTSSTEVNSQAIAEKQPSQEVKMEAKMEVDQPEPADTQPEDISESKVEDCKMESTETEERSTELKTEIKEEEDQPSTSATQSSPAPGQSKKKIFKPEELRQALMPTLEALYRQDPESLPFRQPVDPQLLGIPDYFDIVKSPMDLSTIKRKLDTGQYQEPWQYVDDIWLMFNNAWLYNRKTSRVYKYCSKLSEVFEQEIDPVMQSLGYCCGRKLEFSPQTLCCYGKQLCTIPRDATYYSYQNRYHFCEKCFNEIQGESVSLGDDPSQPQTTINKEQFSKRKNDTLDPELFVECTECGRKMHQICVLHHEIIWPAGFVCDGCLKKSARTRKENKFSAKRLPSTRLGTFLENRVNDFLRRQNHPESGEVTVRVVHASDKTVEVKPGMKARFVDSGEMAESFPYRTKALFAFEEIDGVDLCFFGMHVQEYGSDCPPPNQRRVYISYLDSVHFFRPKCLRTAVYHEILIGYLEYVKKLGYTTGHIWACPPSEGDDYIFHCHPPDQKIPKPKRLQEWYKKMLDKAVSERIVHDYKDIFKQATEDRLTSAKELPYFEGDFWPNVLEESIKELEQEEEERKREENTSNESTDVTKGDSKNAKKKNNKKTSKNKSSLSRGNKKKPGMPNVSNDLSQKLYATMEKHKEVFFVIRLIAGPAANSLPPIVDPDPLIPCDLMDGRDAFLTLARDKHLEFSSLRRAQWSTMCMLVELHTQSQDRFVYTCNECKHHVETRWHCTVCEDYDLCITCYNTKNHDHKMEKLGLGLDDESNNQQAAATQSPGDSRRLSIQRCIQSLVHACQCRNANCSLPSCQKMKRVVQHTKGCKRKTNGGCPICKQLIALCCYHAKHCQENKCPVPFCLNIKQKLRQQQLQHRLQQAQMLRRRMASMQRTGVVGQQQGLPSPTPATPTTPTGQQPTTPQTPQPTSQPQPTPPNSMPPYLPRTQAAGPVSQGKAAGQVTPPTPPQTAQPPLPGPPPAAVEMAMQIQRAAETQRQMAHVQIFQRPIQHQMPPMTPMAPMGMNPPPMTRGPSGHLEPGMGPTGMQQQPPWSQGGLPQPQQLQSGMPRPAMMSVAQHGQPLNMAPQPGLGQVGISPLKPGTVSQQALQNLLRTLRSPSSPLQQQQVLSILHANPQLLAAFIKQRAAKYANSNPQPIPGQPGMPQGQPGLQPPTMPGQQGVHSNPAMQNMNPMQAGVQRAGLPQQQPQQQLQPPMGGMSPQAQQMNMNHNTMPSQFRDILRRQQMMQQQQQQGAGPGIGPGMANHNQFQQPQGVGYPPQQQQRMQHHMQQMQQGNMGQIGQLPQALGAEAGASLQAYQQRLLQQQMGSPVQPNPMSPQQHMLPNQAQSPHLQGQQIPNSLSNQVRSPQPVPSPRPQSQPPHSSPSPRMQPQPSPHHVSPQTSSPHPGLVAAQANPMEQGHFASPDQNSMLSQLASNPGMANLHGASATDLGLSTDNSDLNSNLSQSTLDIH
Protocol: as §3
(B), the percentage of acetylation was calculated in each of the cases by accounting for the corrections of acetylation in the case of Tat alone.

[7] = test system: transcription from DNA template; assay: In vitro transcription from DNA template; assay type: biochemical; settings: even at 300 μM
Protocol: as §4, with “C. For loading control separate reaction was setup with ˜25 ng of supercoiled ML200 DNA, and the transcription assay was carried out as described above, without the addition of the activator (Gal4-VP16) and 2 μl of this reaction was added to each of the transcription reactions.” for “C.”
as §5

SupT1 cells = assay: Trypan blue exclusion analysis of viable cells; assay type: cell-based; settings: 100 μM curcumin, 48 hrs
Text: Various experimental formats have been used to evaluate infection of target cells by HIV or inhibition of the viral infection in the presence of an anti-viral compound (44, 45). The standard format is to add titered viral stock to the target cells at a known multiplicity of infection (MOI) in the presence or absence of an anti-viral compound and monitor the synthesis of the viral structural protein p24 or the enzyme reverse transcriptase (46, 47). In the natural context, the viral transfer is more efficient through cell-to-cell contact rather than free virus infecting a target cell. Prevention of the viral transfer between cells is technically more difficult than neutralizing the free virus. SupT1 cells are highly […] for HIV-1 and these cells make numerous and large syncytia when infected with the virus. Taking advantage of this property, we co-cultured SupT1 cells in the presence of H9/HTLV-IIIb NIH 1983 cells that produce a T-cell tropic virus. […] To rule out the possibility of cytotoxicity and cell death, we determined the number of viable cells in all the wells using a trypan blue exclusion analysis.

CBP = CBP (Homo sapiens, UniProt Q92793); assay: Histone acetyltransferase (HAT) assay with CBP; assay type: biochemical; settings: core histones
Protocol: as §3

[8] = test system: acetylation of p53 in 293 T cells; assay: p53 acetylation in transfected cells (immunoprecipitation, western blotting); assay type: cell-based; settings: 24 hours
Protocol: 293 T cells were transfected with CMV-p53 and CMV-p300 using Lipofectamine 2000 reagent (Invitrogen) according to the manufacturer's instructions. […] The cells were harvested using RIPA buffer (150 mM NaCl, 50 mM Tris pH 7.4, 1% NP40, 0.1% Sodium deoxycholate, 1 mM EDTA, 0.5 μg/ml leupeptin, 0.5 μg/ml aprotinin and 0.5 μg/ml pepstatin) and the p53 protein was immunoprecipitated from the lysates using mouse monoclonal anti-p53 antibody, DO1 (oncogene). The immunocomplexes were bound on protein G-sepharose beads (Amersham Pharmacia) for 12 hours at 4° C., washed 3 times with RIPA buffer and subjected to SDS-PAGE on a 10% gel followed by western blotting using mouse monoclonal anti-p53 antibody, pAb421 or mouse monoclonal anti-acetylated lysine antibody.
(B) HeLa cells were treated as indicated, for 24 hours, histones were extracted and separated on an 18% acid/urea/triton (AUT) PAGE. The protein bands were visualized by Coomassie brilliant blue staining. […] Asterisk (*) indicates hyperacetylation of histones in response to HDAC inhibition by TSA and sodium butyrate. […] (C). The acid-extracted histones were resolved over 12% SDS-PAGE and were analyzed by western blot using antibodies against acetylated histone H3 and H4. […] The p53 protein was immunoprecipitated from the cell lysates using p53 monoclonal antibody and acetylation status was analyzed by western blotting. […]

p300 = p300 (Homo sapiens, UniProt Q09472); assay: Histone acetyltransferase (HAT) assay, filter binding and gel, with p300; assay type: biochemical; settings: varying acetyl CoA or histone concentration; 25 and 30 μM curcumin
p300, sequence (Q09472 whole entry, species assumed): as above
Text: The results were plotted using the Graph Pad Prism software.

[9] = HeLa cells, TSA and sodium butyrate, with versus without curcumin (lane 5 versus 6)

COc1cc(/C=C/C(=O)CC(=O)/C=C/c2ccc(O)c(OC)c2)ccc1O [curcumin]
histone methylation by G9a [1]: remains same | number of syncytia ([2]; highest concentration of curcumin): no syncytia were seen | number of syncytia ([2]; increasing concentration of curcumin): dose-dependent reduction | PCAF HAT activity (PCAF): no change | acetylation of histones (AUT gel) ([3]; HeLa cells hyperacetylated with TSA and sodium butyrate, 100 μM curcumin): inhibited | unacetylated form of histone H4 and H2B (AUT gel) ([3]; HeLa cells, 75 and 100 μM curcumin, 24 hours): modestly increased | inhibition of H3 acetylation (western blotting) [3, 9]: 6 fold | inhibition of H4 acetylation (western blotting) [3, 9]: 10 fold | apoptosis (nuclear fragmentation) (HeLa cells): induces the apoptosis | methylation of core histones by HeLa nuclear extract (NE) [4]: no difference | repression of p300 HAT activity dependent chromatin transcription ([5]; 100 μM): ≤ 3 fold | repression of p300 HAT activity dependent chromatin transcription ([5]; 300 μM): ≤ 8 fold | acetylation of Tat by p300 in vitro [6]: strongly inhibits | transcription from the DNA template [7]: not affected | cytotoxicity (viable cells, trypan blue exclusion) (SupT1 cells): not cytotoxic | inhibition of CBP HAT activity (CBP): potent and specific inhibitor | p300-mediated acetylation of p53 ([8]; 293 T cells transfected with p53 and p300, 100 μM curcumin): completely inhibits | acetylation status of the endogenous p53 ([8]; 293 T cells transfected with p300 alone, 100 μM curcumin): not altered | Kcat of p300 HAT activity (p300): decreased | Km of p300 HAT activity (p300): decreased | Vmax of p300 HAT activity (p300): decreased
